Experimental data from US12492232B2, “Methods for producing proteins” (South Australian Health and Medical Research Institute …, priority 2018, dated 2025).
Entries after “also recorded” stand apart in the source; their conditions may differ.

How the values were obtained:
[1] = tested on: mTORC1 localisation at the lysosome; test: Immunofluorescence of mTOR and LAMP1 colocalisation in serum-starved transfected CHO cells; assay type: cell-based; conditions: medium lacking FBS for 16 h
Method: (§1) 24 h after transfection cells were transferred to medium lacking FBS for 16 hours. Cells were fixed with 4% paraformaldehyde, permeabilized with 0.05% Triton X-100, blocked with 10% normal donkey serum before LAMP1 and then anti-mTOR antibodies were applied overnight. Alexa Fluor™ 488 and 594-labelled secondary antibodies were applied before cells were mounted and stained with DAPI.
as §1, with “h.” for “hours.”, “mTOR” for “then anti-mTOR”, “594” for “594-labelled”

TSC1/TSC2 = test: GAP assay: TSC1/TSC2-promoted hydrolysis of GTP bound to recombinant GST-Rheb; assay type: biochemical; conditions: FLAG-TSC1, FLAG-TSC2, [α-32P]GTP, n=3
Excerpt: FIGS. 1A-1B: Recombinant GST-Rheb proteins were subjected to GAP assay in the presence of FLAG-TSC1, FLAG-TSC2 and [α-^32P] GTP. GST-Rheb bound to GDP or GTP was pulled down using glutathione beads and the nucleotides were then separated by thin-layer chromatography and visualized by phosphorimager. The positions of GDP and GTP are shown (FIG. 1A). […] FIGS. 1C-1D: CHO cells were co-transfected using Lipofectamine 3000 with vectors encoding wildtype (WT) Rheb or the indicated mutants and TSC1/2 as indicated. 36 h after transfection, cells were transferred to Ham's F12 media lacking FBS for 16 h. Cells were the transferred to Dulbecco's phosphate-buffered saline (D-PBS, which lacks amino acids) for 1 h before cell lysates were harvested for SDS-PAGE and Western Blotting analysis using the indicated antibodies. […] This effect is consistent with lack of sensitivity of the mutant Rhebs to TSC1/TSC2. Thus the Rheb mutants S21L, T23M, G29S, Y35N and E40K promote mTORC1 signalling in the absence of upstream activation due to insensitivity to the GAP activity of the TSC complex.
A) Recombinant GST-Rheb proteins were subjected to GTPase assays in the presence of FLAG-TSC1, FLAG-TSC2 and [α-^32P]GTP. Nucleotide-bound GST-Rheb was purified from the reaction mixture using 20 μl glutathione bead slurry. Radioactive GDP and GTP were separated by thin-layer chromatography and visualized by phosphorimager.

[2] = tested on: CHO cells stably expressing Gaussia luciferase (GLuc); test: Secreted Gaussia luciferase assay in CHO cells stably expressing GLuc transfected with Rheb vectors; assay type: cell-based
Method: CHO cells stably expressing Firefly luciferase (FLuc) or Gaussia luciferase (GLuc) as indicated were transfected using Lipofectamine3000 with an empty vector (EV) or vectors for Rheb WT, S21L, T23M, G29S, Y35N or E40K and also treated with the mTOR inhibitor AZD8055 at 100 nM for the total duration where indicated. Fluc and GLuc assays were performed 24 h after transfection and then every 48 h for 7 days. Assay results are normalised to cell number. GLuc-CHO cells were harvested for SDS-PAGE and Western Blot analysis at the 168 h (7-day) time-point to probe for intracellular GLuc, FLAG (Rheb) and actin, as ‘loading control’. […] However, Rheb-T23M and —Y35N caused a significant 3-fold increase in secreted Gaussia luciferase that was also seen with E40K and was prevented by treatment with AZD8055 (C/D [histogram of day 7]). In (E), secreted GLuc was monitored every 4 h from 24 h to 60 h showing the rate of secretion of GLuc was higher when Rheb-T23M is expressed as compared to Rheb-Y35N. The pattern for intracellular levels of Gaussia luciferase (assessed by immunoblot of cell lysates harvested at 7 days post transfection) more closely resemble those intracellular firefly luciferase (F) with little change compared to either the empty vector or WT while still retaining heightened mTORC1 signalling as indicated by the elevated levels of P-S6K1 Thr389 compared to cells transfected with the empty vector. CHO cells expressing Rheb-T23M, Y35N and E40K show a small increases in general protein synthesis but a marked increase in secreted Gaussia protein that is blocked by mTOR inhibition. Thus, Rheb[T23M] selectively promotes production of the secreted protein GLuc in a process that requires mTOR signalling.
Constructs were introduced into CHO cells using Lipofectamine3000 (Life Technologies) according to the manufacturer's protocol. Cell lines stably expressing secreted luciferase were generated by cloning the GLuc gene with a signal sequence from Nanolight Technology (see paper sent with this version) and cloning this into the pcDNA4 commercially available vector where gene expression was driven by a CMV promoter. The subsequent vectors were transfected, using lipofectamine, into CHO-S freestyle suspension cells and grown in CD-CHO media and then stable transfectant pools selected by addition of zeocin antibiotic. Once stable pools had emerged these were subjected to limited dilution cloning to obtain a range of pools with different secreted GLuc expression levels. Methods as are described, for example, in Josse et al. (2009) Biotechnology and Bioengineering 105: 556-566.
For Gaussia luciferase, we employed the BioLux® Gaussia Luciferase Assay Kit (New England Biolabs (NEB), Cat. No. E3300S) and for firefly luciferase the Luciferase Assay System from Promega (Cat. No. E1500). Cells were grown in Ham's F12 medium F12 nutrient mix, Ham's (Life Technologies, Cat. No. 11765054).
CHO cells stably expressing Firefly luciferase (FLuc; which is cytoplasmic) or Gaussia luciferase (GLuc; which is secreted) as indicated were transfected using Lipofectamine3000 with an empty vector (EV) or vectors for Rheb WT, S21L, T23M, G29S, Y35N or E40K and treated with the mTOR inhibitor AZD8055 at 100 nM for the total duration where appropriate. Fluc and GLuc assays were performed at 24 h after transfection and then every 48 h for 7 days. Assay results were normalised to cell number. […]

## Rheb-T23M: human Rheb protein with a methionine variant at residue 23 (T23M), SEQ ID NO. 3
[1]
  mTOR localisation to the lysosome (overlap with LAMP1): promote localisation; also recorded: strong mTOR localisation on lysosomes
TSC1/TSC2
  hydrolysis of GTP bound to Rheb promoted by TSC1/TSC2: completely unable to promote hydrolysis of GTP; also recorded: did not promote hydrolysis of GTP
[2]; day 7, normalised to cell number
  increase in secreted Gaussia luciferase: 3 fold
[2]; monitored every 4 h from 24 h to 60 h, compared to Rheb-Y35N
  rate of secretion of GLuc: higher
